These results are taken from patent US12037344B2, “NLRP3 modulators” (INNATE TUMOR IMMUNITY, INC., priority 2018, dated 2024).

Where two headings read alike, the source gives them in different places. Where only a bound is given, the exact number is not on record here.

One test addresses T1, TLR8 (Homo sapiens, UniProt Q9NR97).
T1 construct: human HEK-Blue cells co-expressing a TLR7 or TLR8 gene
T1 sequence (Q9NR97 27-1041): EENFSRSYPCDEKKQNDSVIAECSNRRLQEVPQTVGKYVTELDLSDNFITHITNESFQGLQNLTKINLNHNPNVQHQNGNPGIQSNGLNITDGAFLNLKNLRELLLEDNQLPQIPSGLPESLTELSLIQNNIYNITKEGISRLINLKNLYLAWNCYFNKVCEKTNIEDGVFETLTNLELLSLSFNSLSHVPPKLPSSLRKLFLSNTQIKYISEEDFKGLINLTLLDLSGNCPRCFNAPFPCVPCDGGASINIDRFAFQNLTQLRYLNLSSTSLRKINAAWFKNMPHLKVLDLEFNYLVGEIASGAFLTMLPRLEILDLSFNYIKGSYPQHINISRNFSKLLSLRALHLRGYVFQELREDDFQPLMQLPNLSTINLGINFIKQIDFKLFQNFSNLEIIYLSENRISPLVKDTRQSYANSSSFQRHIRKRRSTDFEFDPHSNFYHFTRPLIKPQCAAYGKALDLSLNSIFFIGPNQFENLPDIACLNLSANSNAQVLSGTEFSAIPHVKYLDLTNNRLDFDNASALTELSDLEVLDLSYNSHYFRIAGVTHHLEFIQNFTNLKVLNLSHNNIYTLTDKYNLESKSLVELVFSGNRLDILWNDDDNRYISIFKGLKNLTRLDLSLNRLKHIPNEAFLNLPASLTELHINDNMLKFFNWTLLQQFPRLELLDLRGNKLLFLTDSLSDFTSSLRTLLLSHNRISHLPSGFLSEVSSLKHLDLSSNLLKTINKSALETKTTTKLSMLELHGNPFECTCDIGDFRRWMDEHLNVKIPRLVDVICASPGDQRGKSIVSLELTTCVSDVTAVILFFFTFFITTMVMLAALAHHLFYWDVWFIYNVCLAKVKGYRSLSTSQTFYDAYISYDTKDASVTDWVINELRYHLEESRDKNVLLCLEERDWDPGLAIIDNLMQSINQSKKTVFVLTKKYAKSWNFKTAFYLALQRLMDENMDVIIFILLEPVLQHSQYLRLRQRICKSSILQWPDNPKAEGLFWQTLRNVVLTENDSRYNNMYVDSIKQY
Briefly: In vitro human TLR8 binding reporter assay (HEK-Blue, NF-kB/AP1-inducible SEAP). Particulars: read-out: TLR8 Agonist EC50. The class given is cell-based. An outline of the steps: (§1)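 Cells are seeded and grown for 24 h. Compounds or DMSO are then added and incubated 18 h at 37 °C. Quanti-Blue is added, and SEAP is read after thirty minutes. EC50 values are normalized, with RLU from 50 μM reference standard setting 100% Ymax.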
(Reporter assays use an easily measured gene product as a stand-in for the process of interest.)

For the next test, the system named is THP-1 cells. Briefly: Measurement of IL-1β production, hTRF protocol (second alternative procedure), THP-1 cells. In kind it is cell-based, human. In a few lines:
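Compounds, dilution series starting at a final 10 μM, were incubated 2 hours at 37° C with PMA-differentiated THP-1 cells (50 ng/ml overnight; 50,000 cells/well, 2% FBS RPMI). Released IL-1β quantified in supernatant by hTRF kit with 1:40 antibody dilution, 4° C overnight, 665/615 nm ratio.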

A further test has as its target T2, TLR7 (Homo sapiens, UniProt Q9NYK1).
T2 construct: human HEK-Blue cells co-expressing a TLR7 or TLR8 gene
T2 sequence (Q9NYK1 27-1049): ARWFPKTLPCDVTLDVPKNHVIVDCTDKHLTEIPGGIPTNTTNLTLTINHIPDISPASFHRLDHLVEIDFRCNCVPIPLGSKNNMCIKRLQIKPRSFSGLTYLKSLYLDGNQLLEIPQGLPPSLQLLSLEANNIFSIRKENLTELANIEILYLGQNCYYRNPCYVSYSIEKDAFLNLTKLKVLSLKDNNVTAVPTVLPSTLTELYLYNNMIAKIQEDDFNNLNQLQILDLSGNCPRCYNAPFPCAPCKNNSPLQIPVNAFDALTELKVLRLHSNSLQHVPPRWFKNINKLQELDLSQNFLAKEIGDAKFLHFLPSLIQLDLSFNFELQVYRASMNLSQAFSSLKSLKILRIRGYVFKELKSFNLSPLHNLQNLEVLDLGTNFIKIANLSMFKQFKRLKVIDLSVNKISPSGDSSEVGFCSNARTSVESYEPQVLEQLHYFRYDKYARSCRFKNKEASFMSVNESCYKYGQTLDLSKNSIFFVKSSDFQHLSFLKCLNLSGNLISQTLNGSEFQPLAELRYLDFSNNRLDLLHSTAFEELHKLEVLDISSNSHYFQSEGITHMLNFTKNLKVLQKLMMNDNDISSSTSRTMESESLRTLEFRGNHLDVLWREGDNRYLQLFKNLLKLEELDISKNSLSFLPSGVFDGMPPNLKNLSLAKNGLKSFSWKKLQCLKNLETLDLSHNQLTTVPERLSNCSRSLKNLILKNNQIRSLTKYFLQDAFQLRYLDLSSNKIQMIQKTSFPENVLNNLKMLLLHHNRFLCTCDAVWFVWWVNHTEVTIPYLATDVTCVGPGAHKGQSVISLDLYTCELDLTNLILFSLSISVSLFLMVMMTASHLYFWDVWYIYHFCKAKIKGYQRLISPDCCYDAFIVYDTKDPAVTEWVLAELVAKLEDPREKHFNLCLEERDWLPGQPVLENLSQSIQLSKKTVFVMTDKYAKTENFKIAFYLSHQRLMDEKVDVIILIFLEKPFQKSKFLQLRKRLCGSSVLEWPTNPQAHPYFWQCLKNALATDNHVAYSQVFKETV
As to the kind of experiment: In vitro human TLR7 binding reporter assay (HEK-Blue, NF-kB/AP1-inducible SEAP). The class given is cell-based. Particulars: read-out: TLR7 Agonist EC50. An outline of the steps: as §1

Setting [1] is: Homo sapiens, THP-1, IL-1β production, human, read-out: NLRP3 hILIB EC50.
[2] abbreviates: Homo sapiens, THP-1, IL-1β production, human cells, read-out: NLRP3 hILIB EC50.

Turning to `Nc1nc2cc(-c3cc[nH]n3)ccc2c2cn(CC(=O)N[C@@H]3CCOC3)nc12` [Example 544], the EC50 – broadly, the concentration giving half of the maximal effect – at TLR8 (activity range) is greater than 100 µM; with THP-1 cells (IL-1β production, human cells, read-out: NLRP3 hILIB EC50) it was 4.36 µM; at TLR7 (activity range) it was greater than 100 µM.

Take `Nc1nc2cc(-c3cc[nH]n3)ccc2c2cn(CCNC(=O)c3cnccn3)nc12` [Example 83]: the EC50 at TLR8 (activity range class) was greater than 100 µM; with THP-1 cells (setting [1]) it was 0.36 µM; at TLR7 (activity range class), greater than 100 µM.

Take `Nc1nc2cc(-c3cc[nH]n3)ccc2c2cn(CCN3Cc4ccccc4C3=O)nc12` [Example 102, 2-{2-[4-amino-7-(1H-pyrazol-3-yl)-2H-pyrazolo[3,4-c]quinolin-2-yl]ethyl}-2,3-dihydro-1H-isoindol-1-one]: the EC50 at TLR8 (activity range class) is 20 to 100 µM; in the test on THP-1 cells (setting [1]), 0.41 µM; on TLR7 (activity range class), 20 to 100 µM.

Consider `Nc1nc2cc(-c3cc[nH]n3)ccc2c2nn(C3CCCC3O)cc12` (single isomer, unassigned) [Example 314], for which the EC50 was greater than 100 µM on TLR8 (activity range class), 0.49 µM in the test with THP-1 cells (setting [1]) and greater than 100 µM at TLR7 (activity range class).

As to `CN(C)Cc1nc2c(N)nc3cc(-c4ccn[nH]4)ccc3c2o1` [Example 145, 2-[(dimethylamino)methyl]-7-(1H-pyrazol-5-yl)-[1,3]oxazolo[4,5-c]quinolin-4-amine], the EC50 was greater than 100 µM at TLR8 (activity range class), 2.74 µM with THP-1 cells (setting [1]) and greater than 100 µM at TLR7 (activity range class).

On to `Nc1nc2cc(-c3cc[nH]n3)ccc2c2cn(CCNC(=O)c3cnn4cccnc34)nc12` [Example 101], for which the results for the EC50 on TLR8 (activity range class), in the test with THP-1 cells (setting [1]) and on TLR7 (activity range class) were greater than 100 µM, 2.39 µM and greater than 100 µM, respectively.

Consider `CN(CCn1cc2c(n1)c(N)nc1cc(-c3cc[nH]n3)ccc12)Cc1ccccc1` [Example 121, 2-{2-[benzyl(methyl)amino]ethyl}-7-(1H-pyrazol-3-yl)-2H-pyrazolo[3,4-c]quinolin-4-amine], for which the EC50 on TLR8 (activity range class) is greater than 100 µM; in the test on THP-1 cells (Homo sapiens, THP-1, read-out: NLRP3 hILIB EC50), 0.85 µM; on TLR7 (activity range class) it was greater than 100 µM.

`CCn1c(CN)cc2c(N)nc3cc(-c4ccn[nH]4)ccc3c21` [Example 441]: the values for the EC50 on TLR8 (activity range), in the test on THP-1 cells (setting [2]) and on TLR7 (activity range) were greater than 100 µM, 1.33 µM and greater than 100 µM, respectively.

`CC(=O)N(C)CCn1cc2c(n1)c(N)nc1cc(-c3cc[nH]n3)ccc12` [Example 119, N-{2-[4-amino-7-(1H-pyrazol-3-yl)-2H-pyrazolo[3,4-c]quinolin-2-yl]ethyl}-N-methylacetamide]: the EC50 at TLR8 (activity range class) was greater than 100 µM; in the test on THP-1 cells (setting [1]), 9.02 µM; on TLR7 (activity range class) it was greater than 100 µM.

On to `Nc1nc2cc(-c3cc[nH]n3)ccc2c2cn(CCNC(=O)c3cccc(F)c3)nc12` [Example 77], for which the EC50 on TLR8 (activity range class) is greater than 100 µM; in the test on THP-1 cells (setting [1]), 1.68 µM; at TLR7 (activity range class) it was greater than 100 µM.

Regarding `Nc1nc2cc(-c3cc[nH]n3)ccc2c2nn(CCC(=O)NCc3ccccn3)cc12` [Example 507], the concentration for a half-maximal effect (EC50) at TLR8 (activity range) is greater than 100 µM; in the test with THP-1 cells (setting [2]) it was 17.5 µM; on TLR7 (activity range), greater than 100 µM.

Consider `CC(C)(C(=O)NCC(F)F)n1cc2c(N)nc3cc(-c4cc[nH]n4)ccc3c2n1` [Example 514], for which the EC50 at TLR8 (activity range) is greater than 100 µM; in the test on THP-1 cells (setting [2]), 1.81 µM; on TLR7 (activity range) it was greater than 100 µM.

As for `COc1nc(C(=O)NCCc2cc3c(N)nc4cc(-c5ccn[nH]5)ccc4c3[nH]2)cs1` [Example 447], the EC50 was greater than 100 µM on TLR8 (activity range), 0.38 µM in the test with THP-1 cells (setting [2]) and greater than 100 µM at TLR7 (activity range).

Take `Nc1nc2cc(-n3cccn3)ccc2c2cn(CCN3CCOCC3)nc12` [Example 13]: the EC50 is greater than 100 µM at TLR8 (activity range class), 1.78 µM in the test with THP-1 cells (setting [1]) and 20 to 100 µM on TLR7 (activity range class).

As for `COC(=O)NCc1nc2c(N)nc3cc(-c4ccn[nH]4)ccc3c2s1` [Example 134, methyl N-[[4-amino-7-(1H-pyrazol-5-yl)-[1,3]thiazolo[4,5-c]quinolin-2-yl]methyl]carbamate], the EC50 on TLR8 (activity range class) was greater than 100 µM; with THP-1 cells (setting [1]), 0.37 µM; at TLR7 (activity range class) it was 20 to 100 µM.

On to `Nc1nc2cc(-c3cc[nH]n3)ccc2c2nn(C3CCC(O)C3)cc12` (single isomer, unassigned) [Example 342], for which the EC50 at TLR8 (activity range class) was greater than 100 µM; in the test on THP-1 cells (IL-1β production, human, read-out: NLRP3 hILIB EC50), 0.34 µM; on TLR7 (activity range class), greater than 100 µM.

Take `Nc1nc2cc(-c3cc[nH]n3)ccc2c2cn(CCNC(=O)c3nccs3)nc12` [Example 97]: the 50% effective concentration (EC50) was greater than 100 µM on TLR8 (activity range class), 0.23 µM in the test on THP-1 cells (setting [1]) and greater than 100 µM at TLR7 (activity range class).

On to `CC(C)(O)Cn1cc2c(N)nc3cc(-c4ccn[nH]4)ccc3c2n1` [Example 283], for which the EC50 at TLR8 (activity range class) is greater than 100 µM; in the test with THP-1 cells (setting [1]) it was 0.12 µM; on TLR7 (activity range class), greater than 100 µM.

As to `Nc1nc2cc(-c3cc[nH]n3)ccc2c2cn(Cc3nnc(-c4ccccc4)o3)nc12` [Example 172], the EC50 on TLR8 (activity range class) is greater than 100 µM; in the test on THP-1 cells (setting [1]), 0.21 µM; on TLR7 (activity range class), greater than 100 µM.

`Nc1nc2cc(-c3cc[nH]n3)ccc2c2nn(C[C@H]3CCCO3)cc12` [Example 329]: the EC50 was greater than 100 µM on TLR8 (activity range class), 0.31 µM in the test with THP-1 cells (setting [1]) and greater than 100 µM on TLR7 (activity range class).

As to `Nc1nc2cc(-c3ccn[nH]3)ccc2c2nn(CCCNS(=O)(=O)c3ccccc3)cc12` [Example 587], the results for the EC50 at TLR8 (activity range), in the test on THP-1 cells (setting [2]) and at TLR7 (activity range) were greater than 100 µM, 2.39 µM and greater than 100 µM, respectively.

`CC(C(=O)N(C)C)n1cc2c(N)nc3cc(-c4ccn[nH]4)ccc3c2n1` (stereo not drawn) [Example 561]: the EC50 is greater than 100 µM on TLR8 (activity range), 0.95 µM in the test on THP-1 cells (setting [2]) and greater than 100 µM on TLR7 (activity range).

With `Nc1nc2cc(-c3cc[nH]n3)ccc2c2cn(CC(=O)N3CC(F)(F)C3)nc12` [Example 545], the EC50 on TLR8 (activity range) is greater than 100 µM; with THP-1 cells (setting [2]), 1.79 µM; on TLR7 (activity range), greater than 100 µM.

As to `CC(CCO)n1cc2c(N)nc3cc(-c4cc[nH]n4)ccc3c2n1` (single isomer, unassigned) [Example 287, 3-(4-amino-7-(1H-pyrazol-3-yl)-2H-pyrazolo[4,3-c]quinolin-2-yl)butan-1-ol], the EC50 on TLR8 (activity range class) is greater than 100 µM; in the test with THP-1 cells (setting [1]), 0.26 µM; at TLR7 (activity range class), greater than 100 µM.
